The results in this text go back to paper PMC7697888, “Comprehensive Set of Tertiary Complex Structures and Palmitic Acid Binding Provide Molecular Insights into Ligand Design for RXR Isoforms” (International Journal of Molecular Sciences, 2020).

Where two headings read alike, the source gives them in different places.

Assay [1] concerns the target T1, RXRα LBD (Homo sapiens, UniProt P19793).
T1 construct: peptide to the RXRα LBD (aa 225–462) was studied
T1 sequence (P19793 225-462): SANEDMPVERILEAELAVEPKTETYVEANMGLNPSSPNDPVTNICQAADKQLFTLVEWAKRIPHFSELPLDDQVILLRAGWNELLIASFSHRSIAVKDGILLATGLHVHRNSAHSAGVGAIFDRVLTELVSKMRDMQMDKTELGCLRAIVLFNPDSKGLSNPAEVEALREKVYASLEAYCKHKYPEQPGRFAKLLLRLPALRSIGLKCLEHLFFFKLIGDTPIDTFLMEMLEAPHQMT
Put plainly: HTRF-based SRC-1 co-activator recruitment assay. It counts as biochemical. Conditions: for EC50: HTRF; for competition with bexarotene in SRC-1 recruitment: titrated in the presence of 0.3 µM bexarotene. An excerpt: To examine whether PA can act as a modulator that activates RXRs in solution, we next performed homogenous time-resolved fluorescence resonance energy transfer (HTRF)-based co-regulator recruitment assays using a peptide derived from steroid receptor co-activator 1 (SRC-1) as established previously. In addition to PA, we also tested the RXR modulator potentials of myristic acid (MA; C14:0; C14H28O2; […]) and stearic acid (SA; C18:0; C18H36O2; […]).
Terbium cryptate as streptavidin conjugate (Cisbio Bioassays, Codolet, France) was used as the fluorescence resonance energy transfer (FRET) donor and stably coupled via an N-terminal biotin to the SRC-1-derived peptide (biotin-[…]) (Eurogentec Deutschland GmbH, Cologne, Germany), which contains the co-activator consensus motif, LxxLL. Recombinant RXRα LBD fused to N-terminal superfolder green fluorescent protein (sGFP) served as the FRET acceptor. Coactivator recruitment by the RXRα LBD brings FRET donor and acceptor into close proximity, resulting in a gain in the FRET signal as indicator for binding. […] Fluorescence intensities (FI) at 520 nm (acceptor) and 620 nm (donor reference) after excitation at 340 nm were recorded on a Tecan Spark luminometer equipped with enhanced fluorescence module (Tecan) after 2 h of incubation at room temperature. To obtain dimensionless HTRF, FI520 nm was divided by FI620 nm and multiplied with 10,000. The recruitment of the SRC-1-derived peptide to the RXRα LBD was validated with increasing concentrations of SR11237.
For orientation: In TR-FRET formats the signal depends on donor and acceptor labels being close together.

Assay [2] relates to RXR. Put plainly: Gal4 hybrid reporter gene assays, competition with bexarotene / antagonist UVI3003 (isoform not specified). It counts as cell-based, human. Conditions: bexarotene 0.1 µM or 1 µM; for effect on bexarotene-induced RXR activation, low concentration: fatty acid 10 µM; for effect on bexarotene-induced RXR activation, higher concentration: fatty acid 100 µM, not statistically significant for all fatty acids on all isoforms. As to the method:
The Gal4 hybrid reporter gene assays for RXRα, RXRβ and RXRγ were performed as described previously using the Gal4-fusion receptor plasmids pFA-CMV-hRXRα-LBD (NR2B1, UniProt entry: P19793, aa 225–462), pFA-CMV-hRXRβ-LBD (NR2B2, UniProt entry: P28702-1, aa 294–533) and pFA-CMV-hRXRγ-LBD (NR2B3, UniProt entry: P48443-1, aa 229–463), which code for the hinge region and LBD of the canonical RXR isoform. pFR-Luc (Stratagene, San Diego, CA, USA) as the reporter plasmid and pRL-SV40 (Promega, Madison, WI, USA) as the internal control were used. HEK293T cells were grown in DMEM high-glucose medium (supplemented with 10% fetal calf serum (FCS), sodium pyruvate (1 mM), penicillin (100 U/mL) and streptomycin (100 μg/mL)) at 37 °C and 5% CO2, and seeded in 96-well plates (3.0 × 10^4 cells/well) on the day before transfection. Right before transfection, medium was changed to Opti-MEM without supplements and cells were transiently transfected using the Lipofectamine LTX reagent (Invitrogen, Carlsbad, CA, USA) according to the manufacturer’s protocol with pFR-Luc (Stratagene), pRL-SV40 (Promega) and the respective pFA-CMV-hRXR-LBD clone. After 5 h of incubation, medium was changed to Opti-MEM (supplemented with penicillin (100 U/mL) and streptomycin (100 μg/mL)) additionally containing 0.1% DMSO and the respective test compounds or 0.1% DMSO alone as the untreated control. After overnight incubation (12–14 h), cells were assayed for luciferase activity using the Dual-Glo luciferase assay system (Promega) according to the manufacturer’s protocol on a Tecan Spark M10 luminometer (Tecan Deutschland GmbH, Crailsheim, Germany). Each sample was tested in at least three biologically independent repeats in duplicates. Data were normalized for transfection efficiency and cell growth by division of firefly luciferase data by Renilla luciferase data and multiplying by 1000 to obtain relative light units (RLUs). Fold activation denotes the mean RLU of test compounds at a respective concentration divided by the mean RLU of untreated control. […]

The mark [3] stands for this setting: cell-free, compound alone, read-out: EC50 SRC-1 recruitment to RXRα.
Setting [4] is: in the presence of 0.3 µM bexarotene, read-out: EC50 SRC-1 recruitment to RXRα in the presence of 0.3 µM bexarotene.

As a reminder, the EC50 is the midpoint of the concentration-response curve. Take `CCCCCCCCCCCCCCCC(=O)O` [PA, palmitic acid]: the EC50 in assay [1] (setting [3]) amounted to 6.6 µM; in assay [1] (setting [4]) it was 3.1 µM. The “competition with bexarotene in SRC-1 recruitment” value (“competition with bexarotene” for short) in assay [1] is “no competition”. The “effect on bexarotene-induced RXR activation, low concentration” value (from here on “effect … low concentration”) in assay [2] is “tendency to further promote RXR activation”. In addition, in assay [2], the “effect on bexarotene-induced RXR activation, higher concentration” value (shortened to “effect … higher concentration”) was “weak competitive behavior”.

Take `CCCCCCCCCCCCCCCCCC(=O)O` [SA, stearic acid]: the EC50 in assay [1] (setting [3]) worked out at 19 µM. Further, in assay [1] (setting [4]), the half-maximal effective concentration (EC50) came to 14 µM. For the same molecule, in assay [1], the “competition with bexarotene” value is listed as “no competition”. Also, in assay [2], the “effect … low concentration” value is on record as “tendency to further promote RXR activation” and the “effect … higher concentration” value is “weak competitive behavior”.

For `CCCCCCCCCCCCCC(=O)O` [MA, myristic acid], in assay [1] (EC50 SRC-1 recruitment to RXRα in the presence of 0.3 µM bexarotene, in the presence of 0.3 µM bexarotene), the EC50 was 2.9 µM. The EC50 in assay [1] (setting [3]) turned out to be 3.2 µM. Also, in assay [1], the “competition with bexarotene” value is “no competition”. In assay [2], the “effect … low concentration” value is listed as “tendency to further promote RXR activation” and the “effect … higher concentration” value was “weak competitive behavior”.
